Measurements reported in US12428406B2 (PMV Pharmaceuticals, Inc., priority 2019, dated 2025).

Target: T1, p53 Y220C (Homo sapiens, UniProt P04637, Y220C)
T1 construct: The recombinant protein was a truncation mutant containing only amino acids 94-312 of p53; made in house; host or cells: E. coli
Assay: In vitro DNA binding activity assay (HTRF / TR-FRET): stabilization of p53 Y220C and increase of its DNA binding activity
Assay type: biochemical
Conditions: recombinant His-tagged p53 Y220C DNA binding domain (aa 94-312), biotin-labeled consensus DNA, incubated at 27° C. or 29° C. for 60 min
Outline: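 Compound effect on DNA binding of recombinant His-p53 Y220C (E. coli) to biotin-labeled consensus DNA, expressed as SC150, the concentration giving 50% increase versus untreated. Serial 3-fold DMSO dilutions of 4.5 mM stocks; room-temperature steps of 15 then 20 min.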

T1 sequence (P04637 94-312, change not shown): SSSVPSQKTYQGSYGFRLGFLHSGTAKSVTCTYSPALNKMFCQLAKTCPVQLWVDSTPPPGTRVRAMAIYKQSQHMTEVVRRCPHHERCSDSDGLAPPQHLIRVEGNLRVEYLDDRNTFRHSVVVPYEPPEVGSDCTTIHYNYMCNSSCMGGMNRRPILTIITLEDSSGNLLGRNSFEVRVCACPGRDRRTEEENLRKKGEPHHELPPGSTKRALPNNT

| SMILES | SC150 (concentration of the compound required to increase the DNA binding activity by 50%) |
| --- | --- |
| COc1cc(S(N)(=O)=O)ccc1NCC#Cc1cc2c(N[C@H]3CC[C@H](N4CCC5(CCO5)CC4)CC3)cccc2n1CC(F)(F)F [Compound 387A, 3-methoxy-4-{[3-(4-{[(1R,4R)-4-{1-oxa-7-azaspiro[3.5]nonan-7-yl}cyclohexyl]amino}-1-(2,2,2-trifluoroethyl)-1H-indol-2-yl)prop-2-yn-1-yl]amino}benzene-1-sulfonamide] | + (+ = 0 μM ≤ SC150 < 0.05 μM) |
| COCC(O)CN1CCC(Nc2cccc3c2cc(C#CCNc2ccc(S(C)(=O)=O)cc2OC)n3CC(F)(F)F)CC1 (stereo not shown) [Compound 569A, 1-{4-[(2-{3-[(4-methanesulfonyl-2-methoxyphenyl)amino]prop-1-yn-1-yl}-1-(2,2,2-trifluoroethyl)-1H-indol-4-yl)amino]piperidin-1-yl}-3-methoxypropan-2-ol] | + (+ = 0 μM ≤ SC150 < 0.05 μM) |
| CCOc1cc(S(C)(=O)=O)ccc1NCC#Cc1cc2c(N[C@H]3CC[C@H](N4CCOCC4)CC3)cccc2n1CC(F)(F)F [Compound 346A, 2-(3-((2-ethoxy-4-(methylsulfonyl)phenyl)amino)prop-1-yn-1-yl)-N-((1R,4R)-4-morpholinocyclohexyl)-1-(2,2,2-trifluoroethyl)-1H-indol-4-amine] | + (+ = 0 μM ≤ SC150 < 0.05 μM) |
| COc1cc(S(C)(=O)=O)ccc1NCC#Cc1cc2c(N[C@H]3CC[C@H](N4CCC5(CC4)COC5)CC3)cccc2n1CC(F)(F)F [Compound 313A, 2-{3-[(4-methane-sulfonyl-2-methoxy-phenyl)amino]prop-1-yn-1-yl}-N-[(1R,4R)-4-{2-oxa-7-azaspiro[3.5]nonan-7-yl}cyclohexyl]-1-(2,2,2-trifluoroethyl)-1H-indol-4-amine] | + (+ = 0 μM ≤ SC150 < 0.05 μM) |
| COc1cc(S(C)(=O)=O)ccc1NCC#Cc1cc2c(N[C@H]3CC[C@H](N4CCCC(OC)C4)CC3)cccc2n1CC(F)(F)F (stereo partly drawn) [Compound 348A, 2-{3-[(4-methane-sulfonyl-2-methoxy-phenyl)amino]prop-1-yn-1-yl}-N-[(1R,4R)-4-(3-methoxypiperidin-1-yl)cyclohexyl]-1-(2,2,2-trifluoroethyl)-1H-indol-4-amine] | + (+ = 0 μM ≤ SC150 < 0.05 μM) |
| COCC(O)CN1CCC(Nc2cccc3c2cc(C#CCNc2ccc(S(=O)(=O)NC(C)=O)cc2OC)n3CC(F)(F)F)CC1 (stereo not shown) [Compound 606A, N-(4-{[3-(4-{[1-(2-hydroxy-3-methoxypropyl)pipcridin-4-yl]amino}-1-(2,2,2-trifluoroethyl)-1H-indol-2-yl)prop-2-yn-1-yl]amino}-3-methoxybenzenesulfonyl) acetamide] | + (+ = 0 μM ≤ SC150 < 0.05 μM) |
| COCC(=O)N1CCC(Nc2cccc3c2cc(C#CCNc2ccc(S(N)(=O)=O)cc2OC)n3CC(F)(F)F)CC1 [Compound 575A] | + (+ = 0 μM ≤ SC150 < 0.05 μM) |
| COc1cc(S(C)(=O)=O)ccc1NCC#Cc1cc2c(N[C@@H]3CCN(C)C[C@@H]3OC)cccc2n1CC(F)(F)F [Compound 532A, 2-{3-[(4-methanesulfonyl-2-methoxyphenyl)amino]prop-1-yn-1-yl}-N-[(3S,4R)-3-methoxy-1-methylpiperidin-4-yl]-1-(2,2,2-trifluoroethyl)-1H-indol-4-amine] | ++ (++ = 0.05 μM ≤ SC150 < 0.1 μM) |
| CNC(=O)c1ccc(NCC#Cc2cc3c(N[C@H]4CC[C@@H](N5CCC6(CC5)COC6)CC4)cccc3n2CC(F)(F)F)c(OC)c1 [Compound 376A, 3-methoxy-N-methyl-4-{[3-(4-{[(1S,4S)-4-{2-oxa-7-azaspiro[3.5]nonan-7-yl}cyclohexyl]amino}-1-(2,2,2-trifluoroethyl)-1H-indol-2-yl)prop-2-yn-1-yl]amino}benzamide] | + (+ = 0 μM ≤ SC150 < 0.05 μM) |
| CNC(=O)c1ccc(NCC#Cc2cc3c(NC4CCN(C[C@H](O)COC)CC4)cccc3n2CC(F)(F)F)c(OC)c1 [Compound 648A, 4-({3-[4-({1-[(2S)-2-hydroxy-3-methoxypropyl]piperidin-4-yl}amino)-1-(2,2,2-trifluoroethyl)-1H-indol-2-yl]prop-2-yn-1-yl}amino)-3-methoxy-N-methylbenzamide] | + (+ = 0 μM ≤ SC150 < 0.05 μM) |
| COc1cc(S(C)(=O)=O)ccc1NCC#Cc1cc2c(N[C@@H]3CCOC[C@@H]3F)cccc2n1CC(F)(F)F [Compound 1026A, N-[(3R,4R)-3-fluorooxan-4-yl]-2-{3-[(4-methanesulfonyl-2-methoxyphenyl)amino]prop-1-yn-1-yl}-1-(2,2,2-trifluoroethyl)-1H-indol-4-amine] | + (+ = 0 μM ≤ SC150 < 0.05 μM) |
| CNC(=O)c1ccc(NCC#Cc2cc3c(N[C@H]4CC[C@H](N5CC6COCC6C5)CC4)cccc3n2CC(F)(F)F)c(OC)c1 (stereo partly drawn) [Compound 434A, 3-methoxy-N-methyl-4-{[3-(4-{[(1R,4R)-4-{hexahydro-1H-furo[3,4-c]pyrrol-5-yl}cyclohexyl]amino}-1-(2,2,2-trifluoroethyl)-1H-indol-2-yl)prop-2-yn-1-yl]amino}benzamide] | + (+ = 0 μM ≤ SC150 < 0.05 μM) |
| COc1cc(S(C)(=O)=O)ccc1NCC#Cc1cc2c(NC3CCN(C[C@H](O)CO)CC3)cccc2n1CC(F)(F)F [Compound 558A, (2S)-3-{4-[(2-{3-[(4-methanesulfonyl-2-methoxyphenyl)amino]prop-1-yn-1-yl}-1-(2,2,2-trifluoroethyl)-1H-indol-4-yl)amino]piperidin-1-yl}propane-1,2-diol] | + (+ = 0 μM ≤ SC150 < 0.05 μM) |
| COc1cc(C(=O)O)ccc1NCC#Cc1cc2c(N[C@@H]3CCN(CCO)C[C@@H]3F)cccc2n1CC(F)(F)F [Compound 908A, 4-{[3-(4-{[(3S,4R)-3-fluoro-1-(2-hydroxyethyl)piperidin-4-yl]amino}-1-(2,2,2-trifluoroethyl)-1H-indol-2-yl)prop-2-yn-1-yl]amino}-3-methoxybenzoic acid] | + (+ = 0 μM ≤ SC150 < 0.05 μM) |
| COc1cc(C(=O)O)ccc1NCC#Cc1cc2c(N[C@@H]3CCN(C)C[C@H]3F)cccc2n1CC(F)(F)F [Compound 788A, 4-{[3-(4-{[(3R,4R)-3-fluoro-1-methylpiperidin-4-yl]amino}-1-(2,2,2-trifluoroethyl)-1H-indol-2-yl)prop-2-yn-1-yl]amino}-3-methoxybenzoic acid] | + (+ = 0 μM ≤ SC150 < 0.05 μM) |
| CC(C)N1CCC(Nc2cccc3c2cc(C#CCNc2ccc(S(C)(=O)=O)cc2OCC#N)n3CC(F)(F)F)CC1 [Compound 540A] | + (+ = 0 μM ≤ SC150 < 0.05 μM) |
| COc1cc(S(C)(=O)=O)ccc1NCC#Cc1cc2c(NC3CC[N+]4(CC3)COCC(O)C4)cccc2n1CC(F)(F)F (stereo not shown) [Compound 674A, 4-hydroxy-9-[(2-{3-[(4-methanesulfonyl-2-methoxyphenyl)amino]prop-1-yn-1-yl}-1-(2,2,2-trifluoroethyl)-1H-indol-4-yl)amino]-2-oxa-6λ^5-azaspiro[5.5]undecan-6-ylium] | + (+ = 0 μM ≤ SC150 < 0.05 μM) |
| COCC(O)CN1CCC(Nc2cccc3c2cc(C#CCNC(=O)c2ccccc2)n3CC(F)(F)F)C1 (stereo not shown) [Compound 456A, N-[3-(4-{[1-(2-hydroxy-3-methoxypropyl)pyrrolidin-3-yl]amino}-1-(2,2,2-trifluoroethyl)-1H-indol-2-yl)prop-2-yn-1-yl]benzamide] | ++++ (++++ = 0.2 μM ≤ SC150 < 1 μM) |
| COc1cc(S(C)(=O)=O)ccc1NCC#Cc1cc2c(NC3CCN(CCOC(=O)C(C)C)CC3)cccc2n1CC(F)(F)F [Compound 584A, 2-{4-[(2-{3-[(4-methanesulfonyl-2-methoxyphenyl)amino]prop-1-yn-1-yl}-1-(2,2,2-trifluoroethyl)-1H-indol-4-yl)amino]piperidin-1-yl} ethyl 2-methylpropanoate] | + (+ = 0 μM ≤ SC150 < 0.05 μM) |
| COc1cc(S(=O)(=O)N2CCOCC2)ccc1NCC#Cc1cc2c(NC3CCOCC3)cccc2n1CC(F)(F)F [Compound 1002A, 2-(3-{[2-methoxy-4-(morpholine-4-sulfonyl)phenyl]amino}prop-1-yn-1-yl)-N-(oxan-4-yl)-1-(2,2,2-trifluoroethyl)-1H-indol-4-amine] | + (+ = 0 μM ≤ SC150 < 0.05 μM) |
| COc1cc(S(N)(=O)=O)ccc1NCC#Cc1cc2c(N[C@H]3CC[C@H](N4CC5COCC5C4)CC3)cccc2n1CC(F)(F)F (stereo partly drawn) [Compound 430A, 3-methoxy-4-{[3-(4-{[(1R,4R)-4-{hexahydro-1H-furo[3,4-c]pyrrol-5-yl}cyclohexyl]amino}-1-(2,2,2-trifluoroethyl)-1H-indol-2-yl)prop-2-yn-1-yl]amino}benzene-1-sulfonamide] | + (+ = 0 μM ≤ SC150 < 0.05 μM) |
| N#CCOc1cc(S(N)(=O)=O)ccc1NCC#Cc1cc2c(N[C@H]3CC[C@@H](N4CC5(CCOCC5)C4)CC3)cccc2n1CC(F)(F)F [Compound 300A, 3-(cyanomethoxy)-4-{[3-(4-{[(1S,4S)-4-{7-oxa-2-azaspiro[3.5]nonan-2-yl}cyclo-hexyl]amino}-1-(2,2,2-trifluoroethyl)-1H-indol-2-yl)prop-2-yn-1-yl]amino}benzene-1-sulfonamide] | + (+ = 0 μM ≤ SC150 < 0.05 μM) |
